Measurements as given in patent US4246340A, “Method and reagent for bioluminiscence” (LKB-Producter AB, priority 1979, dated 1981).

Legend:
luciferase [1] = molecular target: T1, luciferase (Photinus pyralis, UniProt P08659); assay: Inhibition of the luciferase reaction (literature Ki values); assay type: biochemical; conditions: if 10^-6 M ATP generated 10^-6 M AMP; estimated from Ki; 1 µM
Description: To the extent free AMP and free oxluciferin are formed in the reaction it could also be of interest to study whether this would affect the product inhibition. […] Consequently it may under certain conditions be important to counteract the effect of the generation of free oxyluciferin. The addition of D-luciferin analog makes the initial inhibition of the luciferase so big that the additional inhibition from the oxyluciferin, which is continuously formed during the reaction, will be negligible. The addition of inhibiting concentrations of a D-luciferin analog will thus stabilize the light level.

luciferase [2] = molecular target: T1, luciferase; conditions: inhibition of luciferase; literature value; cited from earlier work

T1 sequence (P08659 whole entry): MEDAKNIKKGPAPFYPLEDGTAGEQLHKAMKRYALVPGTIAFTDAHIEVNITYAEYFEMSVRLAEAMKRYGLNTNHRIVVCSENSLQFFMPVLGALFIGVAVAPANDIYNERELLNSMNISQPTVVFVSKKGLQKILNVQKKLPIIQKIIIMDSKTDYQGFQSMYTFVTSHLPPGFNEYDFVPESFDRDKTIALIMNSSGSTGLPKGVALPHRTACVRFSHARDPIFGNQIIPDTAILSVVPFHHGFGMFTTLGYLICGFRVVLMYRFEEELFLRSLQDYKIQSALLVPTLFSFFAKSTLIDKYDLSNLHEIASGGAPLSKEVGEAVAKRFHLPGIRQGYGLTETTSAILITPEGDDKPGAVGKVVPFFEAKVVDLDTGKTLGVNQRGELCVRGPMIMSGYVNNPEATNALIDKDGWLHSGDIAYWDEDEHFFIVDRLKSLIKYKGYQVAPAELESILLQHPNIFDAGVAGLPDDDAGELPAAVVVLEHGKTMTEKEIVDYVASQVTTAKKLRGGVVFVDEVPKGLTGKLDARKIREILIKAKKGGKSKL

Row | SMILES | effect on the luciferase activity (luciferase [1]) | Ki (luciferase [2]) [µM]
1 | Nc1ncnc2c1ncn2[C@@H]1O[C@H](COP(=O)(O)O)[C@@H](O)[C@H]1O [AMP, adenosinel monophosphate] | less than 0.5% | 240
2 | O=C1CSC(c2nc3ccc(O)cc3s2)=N1 [oxyluciferin] |  | 0.23
